A short description of experiment [1]: Binding affinity to Mg2+ ion at 25 uM in aqueous buffers by UV spectroscopy.
A short description of experiment [2]: Binding affinity to Mg2+ ion assessed as induction of chemical shift at 5 mM in presence of in presence of 25 mM magnesium 1H-NMR spectroscopy.
The nature of experiment [3]: Binding affinity to Na+ ion in acetonitrile at 12.5 uM assessed as induction of shift in the maximum absorbance wavelength by UV spectroscopy.
The nature of experiment [4]: Binding affinity to Mg2+ ion in acetonitrile assessed as induction of shift in the maximum absorbance wavelength by UV spectroscopy.
Experiment [5] is described as follows: Binding affinity to Na+ ion assessed as induction of chemical shift at 5 mM by 1H-NMR spectroscopy.
Experiment [6] deals with T1, Protein phosphatase EYA2 (Homo sapiens) (UniProt O00167).
T1 sequence (whole entry): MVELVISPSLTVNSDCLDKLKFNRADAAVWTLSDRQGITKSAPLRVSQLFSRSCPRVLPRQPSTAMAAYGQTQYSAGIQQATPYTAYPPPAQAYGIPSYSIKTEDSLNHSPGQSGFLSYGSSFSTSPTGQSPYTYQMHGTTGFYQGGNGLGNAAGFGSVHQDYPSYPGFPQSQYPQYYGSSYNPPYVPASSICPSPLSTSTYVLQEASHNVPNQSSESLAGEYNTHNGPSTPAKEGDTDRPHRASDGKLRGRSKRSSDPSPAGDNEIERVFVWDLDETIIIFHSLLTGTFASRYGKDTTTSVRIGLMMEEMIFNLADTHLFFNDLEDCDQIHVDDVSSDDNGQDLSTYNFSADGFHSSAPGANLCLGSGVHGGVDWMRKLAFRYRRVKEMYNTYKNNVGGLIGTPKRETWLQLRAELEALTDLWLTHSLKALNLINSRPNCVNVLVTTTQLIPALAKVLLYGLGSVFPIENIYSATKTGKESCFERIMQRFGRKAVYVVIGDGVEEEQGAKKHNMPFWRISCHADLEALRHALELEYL
The experiment can be described thus: Inhibition of GST-fused human Eya2 ED (253 to 538 residues) expressed in Escherichia coli at […] pre-incubated for 10 mins followed by OMFP substrate addition and further incubated for 30 mins by fluorescence based assay.

The nature of experiment [7]: Binding affinity to Mg2+ ion in acetonitrile assessed as induction of shift in the maximum absorbance wavelength at 25 uM by UV spectroscopy.

Structures are written as SMILES. The source made the active and inactive calls. No cut-off for these calls is given here.

In the case of `O=C(N/N=C/c1ccc(Sc2ccccn2)o1)c1cccc(F)c1`, the outcome in experiment [1], in experiment [3] and in experiment [5] was inactive. The Activity in experiment [2] was -0.6 ppm; in experiment [4], “Dose-dependent effect”.

Consider `C=C1[C@@H](O)[C@@H]2O[C@@]3(CC[C@H](/C=C/[C@@H](C)[C@@H]4CC(C)=C[C@@]5(O[C@H](C[C@@](C)(O)C(=O)O)CC[C@H]5O)O4)O3)CC[C@H]2O[C@@H]1[C@@H](O)C[C@H](C)[C@H]1O[C@@]2(CCCCO2)CC[C@H]1C`, for which, in experiment [6], the inhibition result is “inactive”. As to `N[C@@H](Cc1ccccc1)C(=O)O`, in experiment [6], the inhibition result was “inactive”. On to `Cc1ccccc1C(=O)N/N=C/c1ccc(Sc2ccccn2)o1`, for which, in experiment [7], the result was Active. Turning to `c1cnc2c(c1)ccc1cccnc12`, the inhibition entry in experiment [6] is “inactive”.

Source of the values: ChEMBL document CHEMBL4421733, “Inhibitors of eya2” (2012).
